Experiment: Short-term storage stability of emulsions (drug conc., pH, particle size)
Format: physicochemical
Conditions: for stability in the emulsion formulation: over 12 weeks, 5° C. and 40° C.; for Cinacalcet conc. / D(4, 3) / pH: emulsion
From the text: This Example illustrates the effect of the storage temperature on short-term stability of the formulations of the invention as measured by pH and the size of the droplets. The results of short term stability of cinacalcet at different temperatures and varying TRIS buffer concentrations are presented in Table 8. Cinacalcet was stable in the emulsion formulation over 12 weeks. The pH of the emulsion is lower over time for both placebo and cinacalcet emulsions. The drop in pH is less at lower storage temperature and higher TRIS concentration.
The results of short-term stability of cinacalcet at different temperatures and varying DEA buffer concentrations are presented in Table 9. Cinacalcet was stable in the emulsion formulation over 12 weeks. pH of the emulsion is lower over time for both placebo and cinacalcet emulsion. The drop in pH is less at lower storage temperature and higher DEA concentration.

Which results are given for C[C@@H](NCCCc1cccc(C(F)(F)F)c1)c1cccc2ccccc12 [Cinacalcet, N-(1-(R)-(1-naphthyl)ethyl]-3-[3-(trifluoromethyl)phenyl]-1-aminopropane]?
stability in the emulsion formulation (DEA buffered emulsion): stable; stability in the emulsion formulation (TRIS buffered emulsion): stable; Cinacalcet conc. (DEA 0.05%, 5° C., 0 weeks): 4.42 mg/mL; D(4, 3) (DEA 0.05%, 5° C., 0 weeks): 0.39 µm; pH (DEA 0.05%, 5° C., 0 weeks): 8.77; Cinacalcet conc. (DEA 0.05%, 5° C., 2 weeks): 4.14 mg/mL; D(4, 3) (DEA 0.05%, 5° C., 2 weeks): 0.39 µm; pH (DEA 0.05%, 5° C., 2 weeks): 8.64; Cinacalcet conc. (DEA 0.05%, 5° C., 4 weeks): 4.35 mg/mL; D(4, 3) (DEA 0.05%, 5° C., 4 weeks): 0.4 µm; pH (DEA 0.05%, 5° C., 4 weeks): 8.65; Cinacalcet conc. (DEA 0.05%, 5° C., 6 weeks): 4.28 mg/mL; D(4, 3) (DEA 0.05%, 5° C., 6 weeks): 0.76 µm; pH (DEA 0.05%, 5° C., 6 weeks): 8.59; Cinacalcet conc. (DEA 0.05%, 5° C., 8 weeks): 4.43 mg/mL; D(4, 3) (DEA 0.05%, 5° C., 8 weeks): 0.4 µm; pH (DEA 0.05%, 5° C., 8 weeks): 8.67; Cinacalcet conc. (DEA 0.05%, 5° C., 12 weeks): 4.29 mg/mL; D(4, 3) (DEA 0.05%, 5° C., 12 weeks): 0.4 µm; pH (DEA 0.05%, 5° C., 12 weeks): 8.58; Cinacalcet conc. (DEA 0.05%, 40° C., 0 weeks): 4.42 mg/mL; D(4, 3) (DEA 0.05%, 40° C., 0 weeks): 0.39 µm; pH (DEA 0.05%, 40° C., 0 weeks): 8.77; Cinacalcet conc. (DEA 0.05%, 40° C., 2 weeks): 4.15 mg/mL; D(4, 3) (DEA 0.05%, 40° C., 2 weeks): 0.39 µm; pH (DEA 0.05%, 40° C., 2 weeks): 8.46; Cinacalcet conc. (DEA 0.05%, 40° C., 4 weeks): 4.30 mg/mL; D(4, 3) (DEA 0.05%, 40° C., 4 weeks): 0.4 µm; pH (DEA 0.05%, 40° C., 4 weeks): 8.36; Cinacalcet conc. (DEA 0.05%, 40° C., 6 weeks): 4.28 mg/mL; D(4, 3) (DEA 0.05%, 40° C., 6 weeks): 0.39 µm; pH (DEA 0.05%, 40° C., 6 weeks): 8.25; Cinacalcet conc. (DEA 0.05%, 40° C., 8 weeks): 4.39 mg/mL; D(4, 3) (DEA 0.05%, 40° C., 8 weeks): 0.43 µm; pH (DEA 0.05%, 40° C., 8 weeks): 8.29; Cinacalcet conc. (DEA 0.05%, 40° C., 12 weeks): 4.31 mg/mL; D(4, 3) (DEA 0.05%, 40° C., 12 weeks): 0.43 µm; pH (DEA 0.05%, 40° C., 12 weeks): 8.12; Cinacalcet conc. (DEA 0.30%, 5° C., 0 weeks): 4.78 mg/mL; D(4, 3) (DEA 0.30%, 5° C., 0 weeks): 0.36 µm; pH (DEA 0.30%, 5° C., 0 weeks): 9.12; Cinacalcet conc. (DEA 0.30%, 5° C., 2 weeks): 4.60 mg/mL; D(4, 3) (DEA 0.30%, 5° C., 2 weeks): 0.35 µm; pH (DEA 0.30%, 5° C., 2 weeks): 9.07; Cinacalcet conc. (DEA 0.30%, 5° C., 4 weeks): 4.67 mg/mL; D(4, 3) (DEA 0.30%, 5° C., 4 weeks): 0.37 µm; pH (DEA 0.30%, 5° C., 4 weeks): 9.12; Cinacalcet conc. (DEA 0.30%, 5° C., 6 weeks): 4.60 mg/mL; D(4, 3) (DEA 0.30%, 5° C., 6 weeks): 0.37 µm; pH (DEA 0.30%, 5° C., 6 weeks): 9.11; Cinacalcet conc. (DEA 0.30%, 5° C., 8 weeks): 4.79 mg/mL; D(4, 3) (DEA 0.30%, 5° C., 8 weeks): 0.37 µm; pH (DEA 0.30%, 5° C., 8 weeks): 9.15; Cinacalcet conc. (DEA 0.30%, 5° C., 12 weeks): 4.66 mg/mL; D(4, 3) (DEA 0.30%, 5° C., 12 weeks): 0.36 µm; Cinacalcet conc. (DEA 0.30%, 40° C., 0 weeks): 4.78 mg/mL; D(4, 3) (DEA 0.30%, 40° C., 0 weeks): 0.36 µm; pH (DEA 0.30%, 40° C., 0 weeks): 9.12; Cinacalcet conc. (DEA 0.30%, 40° C., 2 weeks): 4.58 mg/mL; D(4, 3) (DEA 0.30%, 40° C., 2 weeks): 0.36 µm; pH (DEA 0.30%, 40° C., 2 weeks): 8.98; Cinacalcet conc. (DEA 0.30%, 40° C., 4 weeks): 4.73 mg/mL; D(4, 3) (DEA 0.30%, 40° C., 4 weeks): 0.36 µm; pH (DEA 0.30%, 40° C., 4 weeks): 8.99; Cinacalcet conc. (DEA 0.30%, 40° C., 6 weeks): 4.65 mg/mL; D(4, 3) (DEA 0.30%, 40° C., 6 weeks): 0.36 µm; pH (DEA 0.30%, 40° C., 6 weeks): 8.93; Cinacalcet conc. (DEA 0.30%, 40° C., 8 weeks): 4.83 mg/mL; D(4, 3) (DEA 0.30%, 40° C., 8 weeks): 0.37 µm; pH (DEA 0.30%, 40° C., 8 weeks): 8.95; Cinacalcet conc. (DEA 0.30%, 40° C., 12 weeks): 4.71 mg/mL; D(4, 3) (DEA 0.30%, 40° C., 12 weeks): 0.38 µm; Cinacalcet conc. (TRIS 5 mM, 5° C., 0 weeks): 4.43 mg/mL; D(4, 3) (TRIS 5 mM, 5° C., 0 weeks): 0.31 µm; pH (TRIS 5 mM, 5° C., 0 weeks): 8.80; Cinacalcet conc. (TRIS 5 mM, 5° C., 2 weeks): 4.18 mg/mL; D(4, 3) (TRIS 5 mM, 5° C., 2 weeks): 0.31 µm; pH (TRIS 5 mM, 5° C., 2 weeks): 8.69; Cinacalcet conc. (TRIS 5 mM, 5° C., 4 weeks): 4.38 mg/mL; D(4, 3) (TRIS 5 mM, 5° C., 4 weeks): 0.3 µm; pH (TRIS 5 mM, 5° C., 4 weeks): 8.65; Cinacalcet conc. (TRIS 5 mM, 5° C., 6 weeks): 4.33 mg/mL; D(4, 3) (TRIS 5 mM, 5° C., 6 weeks): 0.3 µm; pH (TRIS 5 mM, 5° C., 6 weeks): 8.59; Cinacalcet conc. (TRIS 5 mM, 5° C., 8 weeks): 4.47 mg/mL; D(4, 3) (TRIS 5 mM, 5° C., 8 weeks): 0.31 µm; pH (TRIS 5 mM, 5° C., 8 weeks): 8.60; Cinacalcet conc. (TRIS 5 mM, 5° C., 12 weeks): 4.32 mg/mL; D(4, 3) (TRIS 5 mM, 5° C., 12 weeks): 0.31 µm; pH (TRIS 5 mM, 5° C., 12 weeks): 8.50; Cinacalcet conc. (TRIS 5 mM, 40° C., 0 weeks): 4.43 mg/mL; D(4, 3) (TRIS 5 mM, 40° C., 0 weeks): 0.31 µm; pH (TRIS 5 mM, 40° C., 0 weeks): 8.80; Cinacalcet conc. (TRIS 5 mM, 40° C., 2 weeks): 4.17 mg/mL; D(4, 3) (TRIS 5 mM, 40° C., 2 weeks): 0.31 µm; pH (TRIS 5 mM, 40° C., 2 weeks): 8.41; Cinacalcet conc. (TRIS 5 mM, 40° C., 4 weeks): 4.36 mg/mL; D(4, 3) (TRIS 5 mM, 40° C., 4 weeks): 0.31 µm; pH (TRIS 5 mM, 40° C., 4 weeks): 8.29; Cinacalcet conc. (TRIS 5 mM, 40° C., 6 weeks): 4.29 mg/mL; D(4, 3) (TRIS 5 mM, 40° C., 6 weeks): 0.47 µm; pH (TRIS 5 mM, 40° C., 6 weeks): 8.20; Cinacalcet conc. (TRIS 5 mM, 40° C., 8 weeks): 4.45 mg/mL; D(4, 3) (TRIS 5 mM, 40° C., 8 weeks): 0.48 µm; pH (TRIS 5 mM, 40° C., 8 weeks): 8.11; Cinacalcet conc. (TRIS 5 mM, 40° C., 12 weeks): 4.33 mg/mL; D(4, 3) (TRIS 5 mM, 40° C., 12 weeks): 0.36 µm; pH (TRIS 5 mM, 40° C., 12 weeks): 8.12; Cinacalcet conc. (TRIS 20 mM, 5° C., 0 weeks): 4.92 mg/mL; D(4, 3) (TRIS 20 mM, 5° C., 0 weeks): 0.29 µm; pH (TRIS 20 mM, 5° C., 0 weeks): 9.13; Cinacalcet conc. (TRIS 20 mM, 5° C., 2 weeks): 4.47 mg/mL; D(4, 3) (TRIS 20 mM, 5° C., 2 weeks): 0.29 µm; pH (TRIS 20 mM, 5° C., 2 weeks): 8.98; Cinacalcet conc. (TRIS 20 mM, 5° C., 4 weeks): 4.79 mg/mL; D(4, 3) (TRIS 20 mM, 5° C., 4 weeks): 0.29 µm; pH (TRIS 20 mM, 5° C., 4 weeks): 8.99; Cinacalcet conc. (TRIS 20 mM, 5° C., 6 weeks): 4.72 mg/mL; D(4, 3) (TRIS 20 mM, 5° C., 6 weeks): 0.28 µm; pH (TRIS 20 mM, 5° C., 6 weeks): 8.87; Cinacalcet conc. (TRIS 20 mM, 5° C., 8 weeks): 4.91 mg/mL; D(4, 3) (TRIS 20 mM, 5° C., 8 weeks): 0.29 µm; pH (TRIS 20 mM, 5° C., 8 weeks): 9.02; Cinacalcet conc. (TRIS 20 mM, 5° C., 12 weeks): 4.76 mg/mL; D(4, 3) (TRIS 20 mM, 5° C., 12 weeks): 0.29 µm; pH (TRIS 20 mM, 5° C., 12 weeks): 8.93; Cinacalcet conc. (TRIS 20 mM, 40° C., 0 weeks): 4.92 mg/mL; D(4, 3) (TRIS 20 mM, 40° C., 0 weeks): 0.29 µm; pH (TRIS 20 mM, 40° C., 0 weeks): 9.13; Cinacalcet conc. (TRIS 20 mM, 40° C., 2 weeks): 4.48 mg/mL; D(4, 3) (TRIS 20 mM, 40° C., 2 weeks): 0.29 µm; pH (TRIS 20 mM, 40° C., 2 weeks): 8.82; Cinacalcet conc. (TRIS 20 mM, 40° C., 4 weeks): 4.75 mg/mL; D(4, 3) (TRIS 20 mM, 40° C., 4 weeks): 0.29 µm; pH (TRIS 20 mM, 40° C., 4 weeks): 8.79; Cinacalcet conc. (TRIS 20 mM, 40° C., 6 weeks): 4.73 mg/mL; D(4, 3) (TRIS 20 mM, 40° C., 6 weeks): 0.29 µm; pH (TRIS 20 mM, 40° C., 6 weeks): 8.75; Cinacalcet conc. (TRIS 20 mM, 40° C., 8 weeks): 4.96 mg/mL; D(4, 3) (TRIS 20 mM, 40° C., 8 weeks): 0.29 µm; pH (TRIS 20 mM, 40° C., 8 weeks): 8.76; Cinacalcet conc. (TRIS 20 mM, 40° C., 12 weeks): 4.82 mg/mL; D(4, 3) (TRIS 20 mM, 40° C., 12 weeks): 0.29 µm; pH (TRIS 20 mM, 40° C., 12 weeks): 8.63

Source: patent US8779004B2, “Stable emulsion formulations” (Amgen, Inc., priority 2006, dated 2014)
